# Substitutions are numbered along the chain they refer to. Like-named read-outs stand apart in the source and are kept apart here.
# Assays:
# Format in all cases: biochemical
# [1] = target: T1, wild-type human Core 2 GlcNAcT1 (Homo sapiens, UniProt Q02742, I152V); test: Effects of sulfhydryl reagents and heavy metals on enzyme activity (% activity); conditions: 37° C., 2.0 hours, concentrations listed on FIG. 2
# T1 construct: S-tag (N, cleaved yes); made in house
# T1 sequence (Q02742 37-428 I152V): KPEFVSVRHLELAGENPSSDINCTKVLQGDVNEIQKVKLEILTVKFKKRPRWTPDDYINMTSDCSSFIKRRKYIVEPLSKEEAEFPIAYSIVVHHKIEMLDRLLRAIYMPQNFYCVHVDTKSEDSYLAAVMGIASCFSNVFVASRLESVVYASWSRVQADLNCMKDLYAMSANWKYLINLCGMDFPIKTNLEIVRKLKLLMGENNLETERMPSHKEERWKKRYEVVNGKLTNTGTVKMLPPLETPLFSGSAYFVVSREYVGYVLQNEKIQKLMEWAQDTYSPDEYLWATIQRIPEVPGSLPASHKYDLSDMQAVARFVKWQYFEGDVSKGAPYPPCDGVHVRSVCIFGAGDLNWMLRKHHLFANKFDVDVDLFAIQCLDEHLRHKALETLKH
# Experimental: (§1) Wild-type and C217S, human and mouse, Core 2 GlcNAcT1s were dissolved in an aqueous solution containing 30 mM 2-morpholinoethanesulfonic acid (MES) buffer (pH 6.7) and 1.0 mg/ml bovine serum albumin (BSA). Iodoacetamide (IAA), 5,5′-dithiobis(2-nitrobenzoic acid) (DTNB), N-ethylmaleimide (NEM), HgCl2 and ZnSO4 were added at the concentrations listed on FIGS. 1 and 2. 1.0 mM UDP-GlcNAc, 0.50 mM Gal(β1-3)GalNAcα-pnp, (3H)UDP-GlcNAc (0.50 μCi) and 30 mM MES buffer (pH 6.7) were added as well. The solutions were incubated at 37° C. for 2.0 hours. The (^3H)UDP-GlcNAc and (^3H)GlcNAc(β1-6)Gal(β1-3)GalNAcα-pnp were separated by solid-phase extraction and the DPM of (^3H)Gal(β1-3) GlcNAc(β1-6)GalNAcα-pnp were counted by liquid scintillation. A solution containing all components with exception of enzymes was prepared to measure background levels. The % activity was calculated as follows: (DPMinhibitor−DPMbackground)/(DPMcontrol−DPMbackground)*100. All assays were performed in duplicate. The results are plotted in FIGS. 1 and 2.
# [2] = target: T2, C217S mouse Core 2 GlcNAcT1 (Mus musculus, UniProt Q09324, C217S); test: as above; conditions: relatively high concentrations (FIG. 1), 37° C., 2.0 hours
# T2 construct: made in house; host or cells: CHO-S or COS-7 cells, secreted, purified on anti-FLAG M1 beads
# T2 sequence (Q09324 with tags, fused parts or gaps R88W/S191T/C217S/T260A/H362D/H420R): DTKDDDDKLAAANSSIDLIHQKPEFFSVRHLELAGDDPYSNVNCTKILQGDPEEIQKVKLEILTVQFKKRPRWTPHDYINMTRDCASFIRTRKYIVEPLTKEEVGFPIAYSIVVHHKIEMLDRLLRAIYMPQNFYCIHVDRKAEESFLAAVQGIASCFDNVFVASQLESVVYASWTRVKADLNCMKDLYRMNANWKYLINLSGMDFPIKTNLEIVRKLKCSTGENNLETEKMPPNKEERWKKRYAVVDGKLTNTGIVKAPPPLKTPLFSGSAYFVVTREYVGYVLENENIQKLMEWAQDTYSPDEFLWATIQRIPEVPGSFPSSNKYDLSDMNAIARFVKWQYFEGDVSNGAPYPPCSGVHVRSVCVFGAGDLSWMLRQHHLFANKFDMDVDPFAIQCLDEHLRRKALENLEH
# Experimental: as §1
# [3] = target: T3, wild-type mouse Core 2 GlcNAcT1 (Mus musculus, UniProt Q09324); test: as above; conditions: 37° C., 2.0 hours, concentrations listed on FIG. 1
# T3 construct: made in house; host or cells: COS-7 or CHO-S cells, secreted into the culture supernatant, purified on anti-FLAG M1 beads
# T3 sequence (Q09324 34-428 R88W/S191T/T260A/H362D/H420R): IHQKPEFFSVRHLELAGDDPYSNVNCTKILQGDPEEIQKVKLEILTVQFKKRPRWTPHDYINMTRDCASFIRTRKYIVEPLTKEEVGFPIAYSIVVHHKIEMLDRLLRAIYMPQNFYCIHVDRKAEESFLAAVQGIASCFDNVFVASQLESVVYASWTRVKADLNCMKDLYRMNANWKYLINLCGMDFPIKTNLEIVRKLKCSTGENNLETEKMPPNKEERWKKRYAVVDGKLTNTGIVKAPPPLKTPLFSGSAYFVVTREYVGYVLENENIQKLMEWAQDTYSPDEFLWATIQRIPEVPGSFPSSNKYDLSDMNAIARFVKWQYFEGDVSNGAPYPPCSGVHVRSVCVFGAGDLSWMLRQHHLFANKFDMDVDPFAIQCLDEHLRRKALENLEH
# Experimental: as §1
# [4] = target: T4, C217S human Core 2 GlcNAcT1 (Homo sapiens, UniProt Q02742, C217S); test: as above; conditions: relatively high concentrations (FIG. 2), 37° C., 2.0 hours
# T4 construct: S-tag (N, cleaved yes); made in house
# T4 sequence (Q02742 37-428 C217S): T1 sequence (Q02742 37-428 I152V) with V116I, C181S
# Experimental: as §1
# [5] = target: T5, wild-type mouse Core 2 GlcNAcT1 (Mus musculus, UniProt Q09324, H362D/H420R/R88W/S191T/T260A); test: Kinetic characterization assays (standard enzyme assay with titrated substrate or product)
# T5 construct: made in house; host or cells: COS-7 or CHO-S cells, secreted into the culture supernatant, purified on anti-FLAG M1 beads
# T5 sequence (Q09324 34-428 R88W/S191T/T260A/H362D/H420R): T3 sequence (Q09324 34-428 R88W/S191T/T260A/H362D/H420R)
# Experimental: (§2) Standard enzyme assays for wild-type and mutant (217Cys→Ser) Core 2 GlcNAcT1 were carried out in a 30 μl solution containing 30 mM 2-morpholinoethanesulfonic acid (MES) buffer (pH 6.7), 1.0 mM UDP-GlcNAc (donor substrate), 1.0 μCi UDP-6-[3H]GlcNAc, 0.50 mM (Galβ1-3)GalNAcα-pNp (acceptor substrate or AS), 1 mg/ml BSA, and 15-25 μU (1 unit=1 micromole/min) per assay of recombinant Core 2 GlcNAcT1 protein. The reaction was incubated for 2.0 hours at 37° C. and stopped by the addition of 460 μl of water. Reactions were frozen at −20° C. if they were not processed immediately. The reaction product Galβ1,3 [^3H]GlcNAc(β1,6)GalNAcα-pNp was separated from unreacted UDP-6[^3H]GlcNAc by solid phase extraction using Waters Sep-Pak columns. Samples were eluted from the column with ethanol, added to 10 ml of scintillation fluid and radioactivity (DPM) was determined.
# (§3) Km values were determined by running the standard assay conditions with the exception of the titration of the donor substrate UDP-GlcNAc concentration (for Km,DS) or AS concentration (for Km,AS). The IC50 values for the products UDP and GlcNAc(β1-6)Gal(β1-3)GalNAcα-pNp were determined by running the standard assay conditions and adding titrated product. The mechanism was determined by titrating both donor and acceptor substrates at the same time.
# [6] = target: T1, wild-type human Core 2 GlcNAcT1; test: as above
# Experimental: as §2, §3
# [7] = target: T2, C217S mouse Core 2 GlcNAcT1; test: as above; conditions: for inhibitory potential of the reaction product, C217S compared with wild-type: mouse enzymes, titrated product in standard assay
# Experimental: as §2, §3
# [8] = target: T4, C217S human Core 2 GlcNAcT1; test: as above; conditions: for Km: C217S human enzyme; for inhibitory potential of the reaction product, C217S compared with wild-type: human enzymes, titrated product in standard assay
# Experimental: as §2, §3
# [9] = target: T5, wild-type mouse Core 2 GlcNAcT1; test: Activity of stored recombinant enzyme after addition of reducing agents; conditions: following storage of expressed and purified recombinant enzyme
# Excerpt: (§4) Iodoacetamide, 5,5′-dithiobis(2-nitrobenzoic acid) (DTNB), and N-ethylmaleimide causes inhibition of wild-type human and mouse Core 2 GlcNAcT1s. […] The blocking of this residue by oxidation, alkylation, or heavy metal binding causes inhibition of the enzyme.
# [10] = target: T1, wild-type human Core 2 GlcNAcT1; test: as above; conditions: following storage of expressed and purified recombinant enzyme
# Excerpt: as §4
# [11] = target: T3, wild-type mouse Core 2 GlcNAcT1; test: Kinetic characterization assays (standard enzyme assay with titrated substrate or product); conditions: Ordered Bi Bi mechanism, read-out: KD for the donor substrate
# Experimental: as §2, §3
# [12] = acceptor substrate titrated, read-out: Km value for the acceptor substrate
# [13] = donor substrate titrated, read-out: Km value for the donor substrate
Compound,inhibition of enzyme activity [1],inhibition of enzyme activity [2],inhibition of enzyme activity [3],inhibition of enzyme activity [4],further results
"[Cl][Hg][Cl] [Hg^2+, HgCl2]",inhibit,did not affect,inhibit,insensitive,–
"O=S(=O)([O-])[O-].[Zn+2] [Zn^2+, ZnSO4]",inhibit,did not affect,inhibit,insensitive to Hg^2+ only,–
CC(=O)N[C@H]1[C@@H](Oc2ccc([N+](=O)[O-])cc2)O[C@H](CO)[C@H](O)[C@@H]1O[C@@H]1O[C@H](CO)[C@H](O)[C@H](O)[C@H]1O [Gal(β1-3)GalNAcα-pNp],–,–,–,–,"Km [5, 12]: 150 µM; Km [6, 12]: 340 µM; Km ([7]; C217S mouse enzyme, acceptor substrate titrated, read-out: Km value for the acceptor substrate): 130 µM; Km [8, 12]: 320 µM"
"O[C@@H](CS)[C@@H](O)CS (racemic) [DTT, 1,4-dithiothreitol]",–,–,–,–,change of enzyme activity after addition of reducing agent [9]: increase; change of enzyme activity after addition of reducing agent [10]: increase
NC(=O)CI [Iodoacetamide],inhibition,not inhibited,inhibition,not inhibited,–
O=c1ccn([C@@H]2O[C@H](COP(=O)(O)OP(=O)(O)O)[C@@H](O)[C@H]2O)c(=O)[nH]1 [UDP],–,–,–,–,"inhibitory potential of the reaction product, C217S compared with wild-type [7]: the same for both enzymes; inhibitory potential of the reaction product, C217S compared with wild-type [8]: the same for both enzymes"
CCN1C(=O)C=CC1=O [N-ethylmaleimide],inhibition,not inhibited,inhibition,not inhibited,–
uridine diphospho-N-acetylglucosamine [UDP-GlcNAc],–,–,–,–,"Km [5, 13]: 1500 µM; Km [6, 13]: 1200 µM; Kd ([7]; C217S mouse enzyme, Ordered Bi Bi mechanism, read-out: KD for the donor substrate): 110 µM; Km ([7]; C217S mouse enzyme, donor substrate titrated, read-out: Km value for the donor substrate): 1500 µM; Kd [11]: 110 µM; Km [8, 13]: 1100 µM"
"O=C(O)c1cc(SSc2ccc([N+](=O)[O-])c(C(=O)O)c2)ccc1[N+](=O)[O-] [DTNB, 5,5′-dithiobis(2-nitrobenzoic acid)]",inhibition,not inhibited,inhibition,not inhibited,–
CC(=O)N[C@H]1[C@H](OC[C@H]2O[C@H](Oc3ccc([N+](=O)[O-])cc3)[C@H](NC(C)=O)[C@@H](O[C@@H]3O[C@H](CO)[C@H](O)[C@H](O)[C@H]3O)[C@H]2O)O[C@H](CO)[C@@H](O)[C@@H]1O [Gal(β1-3) GlcNAc(β1-6)GalNAcα-pNp],–,–,–,–,"inhibitory potential of the reaction product, C217S compared with wild-type [7]: the same for both enzymes; inhibitory potential of the reaction product, C217S compared with wild-type [8]: the same for both enzymes"
